In patent US20090143279A1 (priority 2007, published 2009):
Read-outs that look alike come from different tables or passages of the source.

Key:
cytochrome c = type: cell-based, mouse
nuOXPHOS transcripts = type: cell-based, mouse
OXPHOS gene expression = type: cell-based, mouse
mtOXPHOS transcripts = type: cell-based, mouse
reactive oxygen species = type: cell-based, mouse
[1] = system: mitochondrial membrane potential; type: cell-based, mouse
[2] = system: cellular dehydrogenase activity
[3] = 20 μM, composite Z-score vs DMSO
[4] = composite Z-score vs mock-treated (DMSO) wells, Conc 20 μM
[5] = Table 7, C2C12 myotubes, 48 h, composite Z-score
[6] = composite Z-score vs DMSO wells, Conc 20 μM
[7] = normalized composite Z-score vs mock-treated (DMSO) wells, Conc 20 μM
[8] = Conc 20 μM, normalized score vs mock-treated (DMSO) wells
[9] = Table 4, C2C12 myotubes, 48 h, composite Z-score
[10] = composite Z-score vs DMSO, Conc 20 μM

Chain of cytochrome c (P62897 whole entry): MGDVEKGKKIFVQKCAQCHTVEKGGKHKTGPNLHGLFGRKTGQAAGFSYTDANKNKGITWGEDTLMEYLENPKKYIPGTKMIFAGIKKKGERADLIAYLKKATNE

CC(=O)Oc1c(C)c(C)c2c(c1C)CCC(C)(CCCC(C)CCCC(C)CCCC(C)C)O2 (stereo not drawn) [alpha-tochopheryl acetate]
cyt c (cytochrome c; [3]): 0.261 | nucOX (nuOXPHOS transcripts; [3]): 0.339 | Viability (C2C12 myotubes; [3]): −0.957 | GE-HTS (OXPHOS gene expression; [3]): 0.212 | mitoOX (mtOXPHOS transcripts; [3]): −0.094 | ROS (reactive oxygen species; [3]): 0.364 | ΔΨm [1, 3]: −0.734 | MTT [2, 3]: −1.398

C=CC(C1=CC(=O)C(OC)=C(OC)C1=O)c1ccccc1 (stereo not drawn) [3,4-dimethoxydalbergione, reference compound]
cyt c (cytochrome c; [4]): −5.551 | nucOXPHOS Z (nuOXPHOS transcripts; [5]): −2.94 | nucOX (nuOXPHOS transcripts; [4]): −2.944 | Viability (C2C12 myotubes; [4]): −4.588 | GE-HTS (OXPHOS gene expression; [4]): −3.047 | mito-OXPHOS Z (mtOXPHOS transcripts; [5]): −2.72 | mitoOX (mtOXPHOS transcripts; [4]): −2.724 | ROS (reactive oxygen species; [4]): −1.269 | ΔΨm [1, 4]: −3.787 | MTT [2, 4]: −6.200

COC(=O)[C@@]1(C)CCC[C@]2(C)c3ccc(O)c(C(C)C)c3CCC12 (stereo partly drawn) [totarol-19-carboxylic acid, methyl ester]
cyt c (cytochrome c; [4]): 0.085 | nucOX (nuOXPHOS transcripts; [4]): −0.005 | Viability (C2C12 myotubes; [4]): −0.739 | GE-HTS (OXPHOS gene expression; [4]): −0.323 | mitoOX (mtOXPHOS transcripts; [4]): −0.853 | ROS (reactive oxygen species; [4]): 1.290 | ΔΨm [1, 4]: −0.409 | MTT [2, 4]: 1.019

COc1ccc(-c2cc(=O)c3c(O)cc(O[C@@H]4O[C@H](CO[C@@H]5O[C@@H](C)[C@H](O)[C@@H](O)[C@H]5O)[C@@H](O)[C@H](O)[C@H]4O)cc3o2)cc1O [diosmin]
cyt c (cytochrome c; [6]): −0.433 | nucOX (nuOXPHOS transcripts; [6]): −1.150 | Viability (C2C12 myotubes; [6]): −0.712 | GE-HTS (OXPHOS gene expression; [6]): −1.223 | mitoOX (mtOXPHOS transcripts; [6]): −1.147 | ROS (reactive oxygen species; [6]): 0.321 | ΔΨm [1, 6]: −0.501 | MTT [2, 6]: −0.708

NCCS [mercaptamine]
cyt c (cytochrome c): 0.320 | nucOX (nuOXPHOS transcripts): −0.980 | Viability (C2C12 myotubes): −0.271 | GE-HTS (OXPHOS gene expression): −1.175 | mitoOX (mtOXPHOS transcripts): −1.294 | ROS (reactive oxygen species): −0.661 | ΔΨm [1]: −0.724 | MTT [2]: −0.085

CC(=O)O[C@H]1C[C@@H](O)C(C)(C)[C@@H]2C[C@@H](OC(C)=O)[C@]3(C)[C@H](CC[C@@]4(C)[C@@H](c5ccoc5)OC(=O)[C@H]5O[C@@]534)[C@@]12C [3-deacetylkhivorin]
cyt c (cytochrome c; [7]): −0.600 | nucOX (nuOXPHOS transcripts; [7]): −0.823 | Viability (C2C12 myotubes; [7]): 0.398 | GE-HTS (OXPHOS gene expression; [7]): −0.661 | mitoOX (mtOXPHOS transcripts; [7]): −0.272 | ROS (reactive oxygen species; [7]): 0.619 | ΔΨm [1, 7]: 0.274 | MTT [2, 7]: −0.317

COc1ccc([C@H]2COc3cc(O)ccc3C2)c(OC)c1O [mucronulatol]
cyt c (composite Z-score) (cytochrome c; [8]): −0.365 | nucOX (composite Z-score) (nuOXPHOS transcripts; [8]): −0.104 | Viability (composite Z-score) (C2C12 myotubes; [8]): 1.396 | GE-HTS (composite Z-score) (OXPHOS gene expression; [8]): −0.345 | mitoOX (composite Z-score) (mtOXPHOS transcripts; [8]): −0.729 | ROS (composite Z-score) (reactive oxygen species; [8]): −0.187 | ΔΨm (composite Z-score) [1, 8]: 0.006 | MTT (composite Z-score) [2, 8]: −0.847

COc1cc(O)c2c(=O)c(-c3ccc(O)cc3)coc2c1OC [isotectorigenin, 7-methyl ether]
cyt c (composite Z-score) (cytochrome c; [8]): −0.477 | nucOX (composite Z-score) (nuOXPHOS transcripts; [8]): −0.674 | Viability (composite Z-score) (C2C12 myotubes; [8]): 0.633 | GE-HTS (composite Z-score) (OXPHOS gene expression; [8]): −0.592 | mitoOX (composite Z-score) (mtOXPHOS transcripts; [8]): −0.360 | ROS (composite Z-score) (reactive oxygen species; [8]): 0.644 | ΔΨm (composite Z-score) [1, 8]: 0.574 | MTT (composite Z-score) [2, 8]: −1.606

CC(=O)O[C@@H]1C[C@H]2C(C)(C)CCC(=O)[C@]2(C)[C@H]2CC[C@@]3(C)[C@H](c4ccoc4)OC(=O)[C@H]4O[C@]43[C@@]21C [2,3-dihydroisogedunin]
cyt c (composite Z-score) (cytochrome c; [8]): 0.184 | nucOX (composite Z-score) (nuOXPHOS transcripts; [8]): −0.444 | Viability (composite Z-score) (C2C12 myotubes; [8]): 0.804 | GE-HTS (composite Z-score) (OXPHOS gene expression; [8]): −0.471 | mitoOX (composite Z-score) (mtOXPHOS transcripts; [8]): −0.449 | ROS (composite Z-score) (reactive oxygen species; [8]): 0.780 | ΔΨm (composite Z-score) [1, 8]: 0.221 | MTT (composite Z-score) [2, 8]: −1.287

CC1=CC(=O)[C@H]2C(C)(C)CCC[C@]2(C)[C@@]1(O)CCc1ccoc1 [solidagenone]
cyt c (cytochrome c; [4]): −0.061 | nucOX (nuOXPHOS transcripts; [4]): −0.023 | Viability (C2C12 myotubes; [4]): −0.409 | GE-HTS (OXPHOS gene expression; [4]): 0.127 | mitoOX (mtOXPHOS transcripts; [4]): 0.441 | ROS (reactive oxygen species; [4]): 1.734 | ΔΨm [1, 4]: −0.242 | MTT [2, 4]: 0.084

CC(=O)OC1CC[C@@]2(C)C(CC[C@H]3[C@@H]4CC=C(C(C)=O)[C@@]4(C)C(=O)C[C@@H]32)C1 (stereo partly drawn) [3-acetoxypregn-16-en-12,20-dione]
cyt c (cytochrome c; [4]): −0.050 | nucOX (nuOXPHOS transcripts; [4]): −0.775 | Viability (C2C12 myotubes; [4]): −0.873 | GE-HTS (OXPHOS gene expression; [4]): −0.885 | mitoOX (mtOXPHOS transcripts; [4]): −0.958 | ROS (reactive oxygen species; [4]): 0.201 | ΔΨm [1, 4]: −0.216 | MTT [2, 4]: −0.553

O=C(Oc1cc(OC(=O)c2ccccc2)c2c(c1)O[C@H](c1ccc(OC(=O)c3ccccc3)c(OC(=O)c3ccccc3)c1)[C@@H](OC(=O)c1ccccc1)C2)c1ccccc1 [catechin pentabenzoate]
cyt c (composite Z-score) (cytochrome c; [8]): 1.272 | nucOX (composite Z-score) (nuOXPHOS transcripts; [8]): −0.815 | Viability (composite Z-score) (C2C12 myotubes; [8]): −1.434 | GE-HTS (composite Z-score) (OXPHOS gene expression; [8]): −0.898 | mitoOX (composite Z-score) (mtOXPHOS transcripts; [8]): −0.896 | ROS (composite Z-score) (reactive oxygen species; [8]): 0.599 | ΔΨm (composite Z-score) [1, 8]: −1.326 | MTT (composite Z-score) [2, 8]: −1.672

COc1ccc(-c2coc3c(OC)c(OC)ccc3c2=O)cc1 [retusin dimethyl ether]
cyt c (composite Z-score) (cytochrome c): −0.199 | nucOX (composite Z-score) (nuOXPHOS transcripts): −0.033 | Viability (composite Z-score) (C2C12 myotubes): 0.317 | GE-HTS (composite Z-score) (OXPHOS gene expression): −0.135 | mitoOX (composite Z-score) (mtOXPHOS transcripts): −0.331 | ROS (composite Z-score) (reactive oxygen species): 0.069 | ΔΨm (composite Z-score) [1]: 0.378 | MTT (composite Z-score) [2]: −1.263

isoduartin methyl ether [reference compound]
cyt c (composite Z-score) (cytochrome c; [8]): 0.882 | nucOX (composite Z-score) (nuOXPHOS transcripts; [8]): −0.008 | Viability (composite Z-score) (C2C12 myotubes; [8]): −0.603 | Viability (C2C12 myotubes; [9]): −0.603 | GE-HTS (composite Z-score) (OXPHOS gene expression; [8]): −0.182 | mitoOX (composite Z-score) (mtOXPHOS transcripts; [8]): −0.434 | ROS (composite Z-score) (reactive oxygen species; [8]): 0.599 | ROS (reactive oxygen species; [9]): 0.599 | ΔΨm (composite Z-score) [1, 8]: −0.777 | ΔΨm ([1]; Table 4, C2C12 myotubes, 48 h, JC-1, composite Z-score): −0.777 | MTT (composite Z-score) [2, 8]: −2.055 | MTT [2, 9]: −2.055

Nc1nc2c(ncn2[C@H]2C[C@H](O)[C@@H](CO)O2)c(=O)[nH]1 [deoxyguanosine]
cyt c (cytochrome c; [10]): 0.695 | nucOX (nuOXPHOS transcripts; [10]): −0.090 | Viability (C2C12 myotubes; [10]): −0.819 | GE-HTS (OXPHOS gene expression; [10]): −0.001 | mitoOX (mtOXPHOS transcripts; [10]): 0.245 | ROS (reactive oxygen species; [10]): −0.110 | ΔΨm [1, 10]: −0.268 | MTT [2, 10]: −0.703

CCCCCc1c2c(cc(O)c1C(=O)O)OC(=O)c1c(cc(OC)cc1C(=O)CCCC)O2 [lobaric acid]
cyt c (cytochrome c; [10]): −0.020 | nucOX (nuOXPHOS transcripts; [10]): −0.499 | Viability (C2C12 myotubes; [10]): 0.082 | GE-HTS (OXPHOS gene expression; [10]): −0.455 | mitoOX (mtOXPHOS transcripts; [10]): −0.343 | ROS (reactive oxygen species; [10]): 0.860 | ΔΨm [1, 10]: −0.164 | MTT [2, 10]: −0.427

COc1ccc(-c2coc3cc(O)cc(O)c3c2=O)cc1 [biochanin A]
cyt c (composite Z-score) (cytochrome c; [8]): −0.416 | nucOX (composite Z-score) (nuOXPHOS transcripts; [8]): −0.459 | Viability (composite Z-score) (C2C12 myotubes; [8]): 0.987 | GE-HTS (composite Z-score) (OXPHOS gene expression; [8]): −0.324 | mitoOX (composite Z-score) (mtOXPHOS transcripts; [8]): −0.042 | ROS (composite Z-score) (reactive oxygen species; [8]): 0.623 | ΔΨm (composite Z-score) [1, 8]: 0.033 | MTT (composite Z-score) [2, 8]: −0.325

CC(C)c1ccc2c(c1)CC[C@H]1[C@](C)(C(N)=O)CCC[C@]21C [dehydroabietamide]
cyt c (cytochrome c; [7]): 0.030 | nucOX (nuOXPHOS transcripts; [7]): −0.731 | Viability (C2C12 myotubes; [7]): 0.807 | GE-HTS (OXPHOS gene expression; [7]): −0.843 | mitoOX (mtOXPHOS transcripts; [7]): −0.877 | ROS (reactive oxygen species; [7]): −0.130 | ΔΨm [1, 7]: 1.642 | MTT [2, 7]: −0.187
